We go through 5 molecules from paper PMC8361937, “Multifunctional Heterometallic Ir^III−Au^I Probes as Promising Anticancer and Antiangiogenic Agents” (Chemistry (Weinheim an Der Bergstrasse, Germany), 2021).

Read-outs that look alike come from different tables or passages of the source. A value given as a limit tells only on which side of the number the result lay.

Data set [1] has as its system A549 cells. Put plainly: Cell death mechanism by Annexin V-DY634/7-AAD flow cytometry with or without Z-VAD-fmk. The class given is cell-based, human. To be noted: 24 and 48 h, 30 μM Z‐VAD‐fmk. As to the method: For flow cytometry analysis, phosphatidylserine exposure on cell surface as an “early apoptosis” marker and cell membrane damage as necrosis indicator were evaluated with Annexin V‐DY634 (apoptosis) and the DNA‐labelling dye 7‐AAD (necrosis) staining. […] As shown in Figures 4 and S22 (top graphs), cells are distributed in three populations. Annexin V‐DY634‐only positive cells are indicative of an early apoptotic process, a 7‐AAD‐only labelled cell population represents exploded cells as a typical endpoint of necrotic cell death, and the doubly stained population implies that cells started being apoptotic and then eventually burst, a phenomenon known as “late apoptosis”. It is remarkable that late apoptosis state was easily reached at higher concentrations for both complexes. […] As both compounds activate apoptotic pathway, we wanted to unveil whether caspases were implicated in the cell death process by using the pan‐caspase inhibitor Z‐VAD‐fmk.
Cytotoxicity assays: Apoptotic and necrotic cell death was determined by measuring phosphatidylserine exposure on cell surface and cell membrane permeabilisation, respectively, in A549 cells. […] Cell death was analysed using CellQuest Pro (BD Biosciences), FlowJo 7.6.1 (Becton Dickinson (BD), USA) and GraphPad Prism 5 (GraphPad Software, USA) software.
(Flow cytometry measures light scatter and fluorescence of single cells or particles in a stream.)

Data set [2] deals with ucb‐ECFCs. Put plainly: Crystal violet cell viability assay in ucb-ECFCs. The class given is cell-based, human. Particulars: 24 h. As to the method: (§1) Effects on the cell viability related to compounds 1, 2 and 4 were analysed by crystal violet assays in ucb‐ECFCs and apb‐ECFCs. Both kinds of cells show a dose‐dependent sensitivity to the complexes after 24 h of treatment (Figure S30). IC50 values were on the range 1.1‐3.6 μM, ucb‐ECFCs being more sensitive than apb‐ECFCs to the compounds (Table 3), which could be associated to the increased proliferative activity of the ucb‐ECFCs.
(§2) Endothelial colony forming cells (ECFC) were isolated from umbilical cord blood from healthy births but unsuitable for transplantation (ucb‐ECFCs), or from peripheral blood of adult healthy donors (apb‐ECFCs) following the method described by Ingram et al.[57] with minor modifications. […]
(§3) For ECFCs cell viability determination, crystal violet assays were performed. […] Estimation of cell density was achieved by solubilisation of cell‐retained crystal violet with 10 % acetic acid solution and absorbance measurement at 540 nm in a Synergy HD system (BioTek). Data were analysed with SAIC50 v1.5.10 (http://gauss.inf.um.es:8080/IC50/) using the four‐parameter logistic function to calculate IC50 values according to Sebaugh et al.[58]

The test system of data set [3] is apb‐ECFCs. Put plainly: Crystal violet cell viability assay in apb-ECFCs. The class given is cell-based, human. To be noted: 24 h. On the procedure:
as §1, §2, §3

Data set [4] has as its system apb‐ECFCs. Description: Annexin V-FITC/PI apoptosis determination in apb-ECFCs. It is filed as cell-based, human. To be noted: 4 μM, 3 h; for Early apoptotic / Late apoptotic / Necrotic / Viable: apb ECFCs; for Mortality level: apb‐ECFCs. On the procedure: (§4) An apoptosis determination test was performed under acute conditions, that is, incubation for a short period of time (3 h) and high concentration of complexes (4 μM; Table 4). A different response was observed regarding the origin of the ECFCs. While the cytotoxic effect on ucb‐ECFCs was similar for all complexes (ca. 20 %), mortality levels of 50 % were achieved on apb‐ECFCs with complexes 1 and 4. On the contrary, complex 2 appeared to be no toxic under these conditions.
(§5) For apoptosis assessment on ECFCs cells exposed to 1, 2 and 4 complexes, an Annexin V apoptosis detection kit (Immunostep), with FITC‐conjugated Annexin V and propidium iodide (PI), was used. Cells were incubated during 3 h with 1, 2 and 4 at 4 μM, gently detached from cell culture surface with Accutase (Corning) and resuspended in D‐PBS, and stained with FITC‐conjugated annexin V and PI according to manufacturer instructions. Data were acquired using a Gallios Flow Cytometer (Beckman Coulter), and Kaluza v2.1 (Beckman Coulter) software was used for data analysis.

For the next data set, the system named is ECFCs. Description: In vitro tube formation (angiogenic activity) assay. Particulars: 0.25 μM, 20 h, ucb- and apb-ECFCs. It is filed as cell-based, human. On the procedure: In vitro tube formation assay is a highly informative test to probe angiogenic ability of endothelial cells.[55] This observation could be the basis to consider their potential antiangiogenic activity and develop complementary assays in more physiologically relevant models. […] The mechanisms involved in this effect deserve further research.
Tube formation assay: Endothelial cells (10 000 cell/well) suspended in cell culture medium containing each compound at 0.25 μM or vehicle (DMSO) were seeded over Cultrex® Reduced Growth Factor Basement Membrane Matrix (Trevigen) gelled (37 °C for 30 min) in wells of μ‐Slide Angiogenesis coverslips (ibidi). DMSO concentration in the medium was below 0.5 %. Cells were then incubated for a 20 h period with the treatments. Images were acquired with a Moticam 3 digital camera system (Motic) through a CK40 inverted microscope (Olympus) using a 10x objective.

Data set [5] has as its system ucb‐ECFCs. Put plainly: Annexin V-FITC/PI apoptosis determination in ucb-ECFCs. It is filed as cell-based, human. Particulars: 4 μM, 3 h. As to the method: as §4, §5
Data set [6] relates to A549 lung carcinoma cells. Description: MTT-reduction cell viability assay in A549 cells. It is filed as cell-based, human. To be noted: 24 h incubation. As to the method: In vitro bioactivity of complexes 1 to 4 as well as their dimer precursor was determined by MTT‐reduction assays in A549 lung carcinoma cells (Table 2). […] Cells show an increased sensitivity to the heterobimetallic species bearing a phosphine or a thiocytosine group as gold ancillary ligand, complexes 2 and 4 respectively. The higher balance of the lipo‐ vs hydrophilicity of triphenylphosphine[35] of complex 2, or the bio‐friendly nature of the thiocytosine ancillary ligand[36, 37] in the case of complex 4 might promote an increase of the cell permeabilisation and thus display a greater antiproliferative activity.
Cell culture: A549 (human lung carcinoma) cell line (from ATCC, USA) was routinely cultured in high glucose DMEM medium supplemented with 5 % foetal bovine serum (FBS), L‐glutamine and penicillin/streptomycin (hereafter, complete medium).
Cell viability assays : The MTT‐reduction assay was used to analyse cell metabolic activity as an indicator for cell sensitivity to the complexes in A549 cell line. 10^5 cells/mL were seeded in complete medium in flat‐bottom, 96‐well plates (100 μL/well) and allowed to attach for 24 h prior to addition of compounds. The complexes were dissolved in DMSO and added to cells in concentrations ranging from 0.5 to 50 μM in quadruplicate. Cells were incubated with our compounds for 24 h and then 10 μL of MTT (5 mg mL^−1 in PBS) were added to each well and plates were incubated for 2 h at 37 °C. Finally, culture medium was removed and DMSO (100 μL/well) was added to dissolve the formazan crystals. The optical density was measured at 550 nm using a 96‐well multiscanner autoreader (ELISA) and IC50 was calculated. Each compound was analysed at least in three independent experiments.

Data set [7] concerns A549 cells. Put plainly: ROS production measurement (CellROX, flow cytometry). It is filed as cell-based, human. To be noted: 24 h, up to 80 % of IC50. As to the method:
The generation of ROS was analysed by flow cytometry using a fluorogenic CellROX^TM assay kit. Complexes 1 and 4 were selected for the experiment to discriminate between the effects that might drive the presence of the gold fragment. […] Such increment might be in fact associated with the presence of the gold fragment as many reported gold species have shown to induce oxidative stress.[43] Therefore, this experiment seems to indicate that the introduction of the gold fragment activates to a higher extent the mechanisms of ROS generation in A549 cells.
ROS production measurement: 5×10^5 A549 cells/well were seeded in complete medium in flat‐bottom, 6‐well plates (3 mL/well) and allowed to attach for 24 h prior to addition of the compound. Complexes 1 and 4 were dissolved in DMSO and added to cells up to concentration of 80 % (IC50) in duplicate. Cells were incubated with the complexes for 24 h and subsequently, they were trypsinised and the CellROX®Green Flow cytometry assay kit (C10492) was used to evaluate the generation of ROS in a Gallios Flow Cytometer (Beckman Coulter) using Kaluza v2.1 software for data analysis.

Data set [8] has as its system A549 cells. Description: Mitochondrial transmembrane potential analysis (TMRE, flow cytometry). The class given is cell-based, human. Particulars: 48 h. The source says: TMRE is a positively charged dye that accumulates in cells with active mitochondria as consequence of their net internal negative charge but several cell insults, including chemotherapeutic agents, lead to mitochondrial depolarisation and thus TMRE incorporation fails. A shift is seen in the pattern staining for complexes 1 (Figure S29) and 4 (Figure 13) in comparison with untreated cells and this overlaps with that seen when treating cells with S63845 (positive control), a selective inhibitor of the Mcl‐1 antiapoptotic protein involved in the regulation of the mitochondrial apoptotic pathway.
Mitochondrial transmembrane potential analysis: Integrity of the mitochondrial outer membrane was evaluated by measuring disruption of mitochondrial transmembrane potential. For this assay, 10^5 A549 cells/mL were seeded in complete medium in flat‐bottom, 12‐well plates (1 mL/well) and allowed to attach for 24 h prior to addition of compounds. Cells were treated for 48 h with compound 4 at 150 μM in duplicate. Then, they were trypsinised, resuspended in 500 μl of a mixture of complete medium and 60 nM of the tetramethilrhodamine ethyl ester (TMRE) probe and incubated at 37 °C in the dark for 20 min. Finally, a total of 10 000 cells were acquired on a FACSCalibur flow cytometer (BD Biosciences) and data were analysed using the aforementioned software.

The test system of data set [9] is A549 lung carcinoma cells. To be noted: cited from earlier work.

Take `F[P-](F)(F)(F)(F)F.c1ccc([P+]2(c3ccccc3)C[P+](c3ccccc3)(c3ccccc3)[Ir-3]234([c]2ccccc2-c2cccc[n+]23)[c]2ccccc2-c2cccc[n+]24)cc1` [Complex 1, [Ir(ppy)2(dppm)]PF6]: the “Cell death mechanism (effect of pan-caspase inhibitor Z-VAD-fmk)” value in the data set on A549 cells [1] is on record as “caspase‐independent cell death mechanism”. The IC50 with ucb‐ECFCs [2] turned out to be 1.16 µM. Moreover, in the data set with apb‐ECFCs [3], the IC50 was 2.71 µM. In the data set on apb‐ECFCs [4], this molecule came in with an Early apoptotic of 8.30%, a Late apoptotic of 51.93%, a Necrotic of 9.02% and a Viable of 30.75%. Further, in the data set on apb‐ECFCs [4], the Mortality level was 50%. The “Tube formation activity of ECFCs on Cultrex matrix” value in the data set with ECFCs is given as “reduced although not completely impaired”. Also, in the data set on ucb‐ECFCs [5], the Early apoptotic is listed as 1.12%, the Late apoptotic turned out to be 21.81%, the Necrotic amounted to 3.96% and the Viable stood at 73.10%. Also, in data set [6], half-maximal inhibition (IC50) was put at 1 ± 0.08 µM. Besides, in the data set on A549 cells [7], the ROS generation result is “dose‐dependent increase in the generation of ROS”. The “Disruption of mitochondrial transmembrane potential (TMRE staining)” value with A549 cells [8] is reported as “complete disruption of mitochondrial transmembrane potential”.

For the molecule `F[P-](F)(F)(F)(F)F.c1ccc([P+]([Au-][CH]2[P+](c3ccccc3)(c3ccccc3)[Ir-3]34([c]5ccccc5-c5cccc[n+]53)([c]3ccccc3-c3cccc[n+]34)[P+]2(c2ccccc2)c2ccccc2)(c2ccccc2)c2ccccc2)cc1` [Complex 2], the IC50 with ucb‐ECFCs [2] is 2.63 µM. Moreover, the IC50 in the data set with apb‐ECFCs [3] worked out at 3.52 µM. In the data set on apb‐ECFCs [4], this molecule came in with an Early apoptotic of 9.22%, a Late apoptotic of 8.40%, a Necrotic of 0.14% and a Viable of 82.25%. Besides, the Mortality level result in the data set with apb‐ECFCs [4] is given as “no toxic”. The “Tube formation activity of ECFCs on Cultrex matrix” value in the data set on ECFCs is “reduced although not completely impaired”. In the data set with ucb‐ECFCs [5], the Early apoptotic is reported as 0.93%, the Late apoptotic was 17.24%, the Necrotic was 5.01% and the Viable came to 76.82%. In [6], this molecule gave an IC50 of 0.8 ± 0.06 µM.

The molecule `[Cl][AuH][CH]1[P+](c2ccccc2)(c2ccccc2)[Ir-3]23([c]4ccccc4-c4cccc[n+]42)([c]2ccccc2-c2cccc[n+]23)[P+]1(c1ccccc1)c1ccccc1` [Complex 3] gave an IC50 in data set [6] of 1.7 ± 0.08 µM.

In the case of `N.N.[Cl][Pt][Cl]` [cisplatin, reference compound], the half-inhibitory concentration (IC50) in data set [9] is 20.8 ± 2.1 µM.

Take `c1cc[c]2c(c1)-c1cccc[n+]1[Ir-3]213([Cl+][Ir-3]24([Cl+]1)([c]1ccccc1-c1cccc[n+]12)[c]1ccccc1-c1cccc[n+]14)[c]1ccccc1-c1cccc[n+]13` [dimer, [Ir(ppy)2(μ‐Cl)]2]: the IC50 in data set [6] is more than 50 µM.

One may read the IC50 as the concentration at which inhibition is half-maximal.
